The source of these data is patent US20220211735A1, “MEDICAMENT AND COMBINATION PRODUCT USED FOR PREVENTING, ALLEVIATING AND/OR TREATING FIBROSIS, AND USE THEREOF” (priority 2019, published 2022).

The test system of data set [1] is type I collagen α1 promoter COL1A1P. The experiment in a line: COL1A1 promoter-luciferase reporter gene activity in LX2-COL cells. Format: cell-based, human. The settings on record: 24 hours. As to the method: The constructed monoclonal cells LX2-COL stably expressing the type I collagen al promoter COL1A1P were spread on a 96-well plate with 2×10^4 cells per well. After the cell confluence is about 90%, different concentrations of medicament C (using Carrimycin or Isovalerylspiramycin I) were added, and each group of experiments has 4 replicate holes. Follow the instructions of Bright-Glo™ Luciferase Assay System, the medium in wells were removed after 24 hours, and 50 μl/well of any medium was added to each well. 50 μl of luciferase substrate was added to each well, and detection was performed after 2 min.

For data set [2], the system named is COL1A1, TGFB1, ACTA2 mRNA in LX-2 cells. The experiment in a line: Real-time PCR of main fibrosis markers in LX-2 cells induced by TGFβ1. The format is cell-based, human. As to conditions: TGF-β1 2 ng/ml, 24 hours. As to the method:
(§1) TGFβ1 induced LX-2 cells and medicament C (using Climycin (HB) or Isovalerylspiramycin I (HY)) administration treatment: LX-2 cells were cultured in DMEM, High Glucose, GlutaMAX™ (Gibco10566016) medium containing 10% fetal bovine serum and mixture of 1% […] and 1% penicillin at 37 DEG C and 5% CO2. 1×10^5 cells per well were plated on a 6-well plate. After 24 hours of culture, the original medium in the 6-well plate was removed by a vacuum pump and added with DMEM medium without 10% fetal bovine serum. After starvation for 24 hours, TGF-β1 (2 ng/ml) was added to induce cell, and different concentration gradients of Carrimycin or Isovalerylspiramycin I were added at the same time, the concentrations were 10 μmol/L and 20 μmol/L respectively. A control group (without adding TGF-β1 induction), TGF-β1 induction group (only TGF-β1 induction) and TGF-β1 induction administration group (both TGF-β1 induction and medicament C treatment) were set.
After culturing for 24 hours, the medium was discarded, and the total RNA of LX-2 cells were extracted according to the TRIzol instructions. Following the instructions of Roche Transcriptor First Strand cDNA Synthesis Kit, the LX-2 total RNA were to reverse transcribed into cDNA. […]

Data set [3] relates to COL1A1, TGFβ1, α-smooth muscle actin protein in LX-2 cells. The experiment in a line: Western Blot of main fibrosis markers in LX-2 cells induced by TGFβ1. The format is cell-based, human. The settings on record: 20 μmol/L, TGF-β1 2 ng/ml, 24 hours. How it is done: as §1
After the cells were induced by TGFβ1 and continued to be cultured for 24 hours, 1 ml of Ripa lysis solution (containing 1% PMSF) was added to each well of the 6-well plate to extract the protein. And the protein concentration was determined by the BCA method. The sample was loaded at 25 μg/20 μl per well. […]

Data set [4] relates to COL1A1, TGFB1, ACTA2, MMP2 mRNA in lung fibroblasts MRC-5. The experiment in a line: Real-time PCR of main fibrosis markers in lung fibroblasts MRC-5 induced by TGFβ1. The format is cell-based. The settings on record: TGF-β1 3 ng/ml, 24 hours. How it is done:
Method for TGFβ1 inducing lung fibroblasts MRC-5 and administrating Carrimycin or Isovalerylspiramycin I comprises: MRC-5 was cultured in a MEM (Gibco 11095-080) culture medium containing 10% fetal bovine serum, a mixture of 1% penicillin and 1% streptomycin and 1% non-essential amino acids at 37 DEG C and 5% CO2, and was plated in a 6-well according to 3×10^5 cells per well. After culturing for 24 hours, the original culture medium in the 6-well plate was removed by a vacuum pump, and MEM culture medium without 10% fetal bovine serum was added to be starvation culture for 24 hours. And then TGF-β1 (3 ng/ml) induction was added, and at the same time different concentration gradients of Carrimycin and Isovalerylspiramycin I were added. The concentrations were 10 μmol/L, 20 μmol/L, 40 μmol/L. The following groups were set, control group (without adding TGF-β1 induction), TGF-β1 induction group (only TGF-β1 induction is added) and TGF-β1 induction administration group (both adding TGF-β1 induction and treating with Carrimycin or Isovalerylspiramycin I).
After culturing for 24 hours, the culture medium was discarded, and the Total RNA of MRC-5 cells were extracted according to the operation steps of the TRIzol instructions. According to the operation steps of the instructions of Roche Transcriptor First Strand cDNA Synthesis Kit, Total RNA of […] was reversely transcribed into cDNA. The cDNA, sterile water, Roche FastStart Universal Probe Master (Rox) and ABI TaqMan probes (GAPDH, COL1A1, TGFB1, ACTA2, MMP2) were prepared into a 20 μl reaction system, and the ABI 7500 Fast Real-time PCR System was used for detection. GAPDH was used as an internal control to analyze the results.

The test system of data set [5] is COL1A1, TGFB1, ACTA2, MMP2 mRNA in skin fibroblasts CCC-ESF-1. Format: cell-based. As to conditions: CCC-ESF-1, 20 and 40 μmol/L, TGF-β1 5 ng/ml, 24 hours. As to the method:
Method for TGFβ1 inducing skin fibroblasts CCC-ESF-1 and administrating Carrimycin and Isovalerylspiramycin I comprises: CCC-ESF-1 was cultured in DMEM, High Glucose, GlutaMAX™ (Gibco 10566016) culture medium containing 10% fetal bovine serum, mixture of 1% penicillin and 1% streptomycin at 37 DEG C and 5% CO2, and was plated in a 6-well according to 3×10^5 cells per well. After culturing for 24 hours, the original culture medium in the 6-well plate was removed by a vacuum pump, and DMEM culture medium without 10% fetal bovine serum was added to be starvation culture for 24 hours. And then TGF-β1 (5 ng/ml) induction was added, and at the same time different concentration gradients of Carrimycin and Isovalerylspiramycin I were added. The concentrations were 20 μmol/L and 40 μmol/L. The following groups were set, control group (without adding TGF-β1 induction), TGF-β1 induction group (only TGF-β1 induction is added) and TGF-β1 induction administration group (both adding TGF-β1 induction and treating with Carrimycin or Isovalerylspiramycin I).
After culturing for 24 hours, the culture medium was discarded, and the Total RNA of […] were extracted according to the operation steps of the TRIzol instructions. According to the operation steps of the instructions of Roche Transcriptor First Strand cDNA Synthesis Kit, Total RNA of LX-2 was reversely transcribed into cDNA. […]

The conditions of data set [6]: in vivo; cited from earlier work.

For `CO[C@@H]1[C@@H](O[C@@H]2O[C@H](C)[C@@H](O[C@H]3C[C@@](C)(O)[C@@H](OC(=O)CC(C)C)[C@H](C)O3)[C@H](N(C)C)[C@H]2O)[C@@H](CC=O)C[C@@H](C)[C@@H](O[C@H]2CC[C@H](N(C)C)[C@@H](C)O2)/C=C/C=C/C[C@@H](C)OC(=O)C[C@H]1O` [Isovalerylspiramycin I], the “luciferase luminescence (COL1A1 promoter activity)” value in data set [1] (40 μM) is “decreased most significantly”. For the same compound, the “inhibitory effect on the activity of the COL1A1 promoter” value in data set [1] (LX2-COL cells, luciferase) is “significant inhibitory effect”. Moreover, the “inhibitory effect on COL1A1, TGFB1, and ACTA2 at the mRNA level” value in data set [2] (20 μmol/L) is “best inhibitory effect”. In addition, the “expression of COL1A1, TGFB1, and ACTA2 (mRNA)” value in data set [2] (with the increase of the doses (10 and 20 μmol/L)) is on record as “decreased”. For the same compound, the “expression of marker proteins COL1A1, TGFβ1, α-smooth muscle actin” value in data set [3] is “significantly inhibited”. Besides, in data set [4] (MRC-5, 40 μmol/L), the “effect of inhibiting COL1A1, TGFB1, and ACTA2 at the mRNA level” value is on record as “the best”; the “effect of inhibiting COL1A1 at the mRNA level” value is recorded as “the best”. In addition, the “expression of COL1A1 (mRNA)” value in data set [4] (MRC-5, with the increase of the dose (10, 20, 40 μmol/L)) is given as “decreases”. Moreover, in data set [5], the “inhibition of COL1A1, TGFB1, ACTA2, and MMP2 (mRNA)” value is “significantly inhibit”.

As for Carrimycin, the T1/2β in data set [6] is 23 to 27 h.
